Read-outs that look alike come from different tables or passages of the source.
Biological target: T1, IRAK4 (Homo sapiens, UniProt Q9NWZ3)
T1 sequence (Q9NWZ3 1-460): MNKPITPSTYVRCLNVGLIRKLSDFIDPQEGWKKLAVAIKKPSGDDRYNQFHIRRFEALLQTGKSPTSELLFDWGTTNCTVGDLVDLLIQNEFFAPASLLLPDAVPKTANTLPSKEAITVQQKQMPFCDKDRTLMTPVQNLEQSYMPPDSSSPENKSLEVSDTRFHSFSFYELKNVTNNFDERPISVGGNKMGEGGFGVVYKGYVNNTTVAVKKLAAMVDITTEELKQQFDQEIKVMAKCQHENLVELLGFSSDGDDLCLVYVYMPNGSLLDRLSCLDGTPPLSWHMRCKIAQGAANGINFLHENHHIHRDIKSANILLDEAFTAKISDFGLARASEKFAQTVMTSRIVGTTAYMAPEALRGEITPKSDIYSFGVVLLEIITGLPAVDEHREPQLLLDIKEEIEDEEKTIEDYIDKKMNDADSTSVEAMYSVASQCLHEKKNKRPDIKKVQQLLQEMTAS
Test: Hibit fluorescence detection of proteolysis (IRAK4-HiBiT in HEK293T cells)
Assay type: cell-based
Parameters: host or cells: HEK293T (ATCC)
Conditions: for Dmax: HEK-293T
How it was run: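 Degradation read-out: luminescence from lytic HiBiT detection (15 min, room temperature) after 24 h compound exposure (37 °C, 5% CO2) of HEK293T cells transiently expressing IRAK4 fused to a HiBiT tag. Data fitted to a bell-shaped four-parameter model giving two EC50 values.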

[1] = IRAK4-HiBiT, HEK293T cells, 24 h
[2] = IRAK4-HiBiT, HEK293T cells, 24 h, read-out: Dmax
[3] = IRAK4-HiBiT, HEK293T cells, 24 h, read-out: DC50

Row | SMILES | Dmax [%] | DC50 [1] [nM] | Dmax [2] [%] | DC50 [3] [nM]
1 | NC(=O)c1cnn2c(-c3cn(-c4cn([C@H]5CC[C@H](CN6CC7(CC(CCNc8cccc9c8C(=O)N(C8CCC(=O)NC8=O)C9=O)C7)C6)CC5)nc4C(F)F)nn3)ccc2c1 (stereo partly shown) [Example 76, 7-(1-(3-(difluoromethyl)-1-((1r,4r)-4-((6-(2-((2-(2,6-dioxopiperidin-3-yl)-1,3-dioxoisoindolin-4-yl)amino)ethyl)-2-azaspiro[3.3]hept-2-yl)methyl)cyclohexyl)-1H-pyrazol-4-yl)-1H-1,2,3-triazol-4-yl)pyrrolo[1,2-b]pyridazine-3-carboxamide] | < 60 | < 0.5 | – | –
2 | NC(=O)c1cnn2c(-c3cn(-c4cn(C5CCN(CC6CCC7(CC6)CCN(C(=O)c6ccc(Cl)c(N8CCC(=O)NC8=O)c6)CC7)CC5)nc4C(F)F)nn3)ccc2c1 [Example 77] | 70 to 80 | 0.5 to 1 | – | –
3 | O=C1CCC(N2C(=O)c3ccc(N4CC(CN5CCC(n6cc(-n7cc(-c8cnn9ccc(N%10CCOCC%10)nc89)nn7)c(C(F)F)n6)CC5)C4)cc3C2=O)C(=O)N1 (stereo not shown) [Example 78] | 70 to 80 | 1 to 5 | – | –
4 | Cn1c(=O)n(C2CCC(=O)NC2=O)c2cccc(C#CC3CCN(C[C@H]4CC[C@H](n5cc(-n6cc(-c7ccc8cc(C(N)=O)cnn78)nn6)c(C(F)F)n5)CC4)CC3)c21 (stereo partly shown) [Example 79] | 70 to 80 | 0.5 to 1 | – | –
5 | Cn1c(=O)n(C2CCC(=O)NC2=O)c2cccc(N3CCC4(CCN(C[C@H]5CC[C@H](n6cc(-n7cc(-c8ccc9cc(C(N)=O)cnn89)nn7)c(C(F)F)n6)CC5)C4)C3)c21 (stereo partly shown) [Example 80, 7-(1-(3-(difluoromethyl)-1-((1r,4r)-4-(7-(1-(2,6-dioxy-3-yl)-3-methyl-2-oxo-2,3-dihydro-1H-benzo[d]imidazol-4-yl)-2,7-diazaspiro[4.4]non-2-yl)methyl)-1H-pyrazol-4-yl)-1H-1,2,3-triazol-4-yl)pyrrolo[1,2-b]pyridazine-3-carboxamide] | > 80 | < 0.5 | – | –
6 | Cn1c(=O)n(C2CCC(=O)NC2=O)c2cccc(N3CC4CN(C[C@H]5CC[C@H](n6cc(-n7cc(-c8ccc9cc(C(N)=O)cnn89)nn7)c(C(F)F)n6)CC5)CC4C3)c21 (stereo partly shown) [Example 81] | > 80 | < 0.5 | – | –
7 | Cn1c(=O)n(C2CCC(=O)NC2=O)c2cccc(C3CN(C4CCN(C[C@H]5CC[C@H](n6cc(-n7cc(-c8ccc9cc(C(N)=O)cnn89)nn7)c(C(F)F)n6)CC5)CC4)C3)c21 (stereo partly shown) [Example 82] | > 80 | < 0.5 | – | –
8 | Cn1c(=O)n(C2CCC(=O)NC2=O)c2cccc(C3CN(C4CN(C[C@H]5CC[C@H](n6cc(-n7cc(-c8ccc9cc(C(N)=O)cnn89)nn7)c(C(F)F)n6)CC5)C4)C3)c21 (stereo partly shown) [Example 83] | 70 to 80 | < 0.5 | – | –
9 | Cn1c(=O)n(C2CCC(=O)NC2=O)c2cccc(N3CC4CCC(C3)N4C[C@H]3CC[C@H](n4cc(-n5cc(-c6ccc7cc(C(N)=O)cnn67)nn5)c(C(F)F)n4)CC3)c21 (stereo partly drawn) [Example 86, 7-(1-(3-(difluoromethyl)-1-((1R,4R)-4-(3-(1-(2,6-dioxy-3-yl)-3-methyl-2-oxo-2,3-dihydro-1H-benzo[d]imidazol-4-yl)-3,8-diazabicyclo[3.2.1]oct-8-yl)methyl)cyclohexyl-1H-pyrazol-4-yl)-1H-1,2,3-triazol-4-yl)pyrrolo[1,2-b]pyridazine-3-carboxamide] | > 80 | 1 to 5 | – | –
10 | Cn1c(=O)n(C2CCC(=O)NC2=O)c2cccc(C#CC3CN(C[C@H]4CC[C@H](n5cc(-n6cc(-c7ccc8cc(C(N)=O)cnn78)nn6)c(C(F)F)n5)CC4)C3)c21 (stereo partly shown) [Example 87] | 70 to 80 | 0.5 to 1 | – | –
11 | Cn1c(=O)n(C2CCC(=O)NC2=O)c2cccc(N3CCOC4(CCN(C[C@H]5CC[C@H](n6cc(-n7cc(-c8ccc9cc(C(N)=O)cnn89)nn7)c(C(F)F)n6)CC5)CC4)C3)c21 (stereo partly shown) [Example 88] | 70 to 80 | < 0.5 | – | –
12 | Cn1c(=O)n(C2CCC(=O)NC2=O)c2cccc(N3CCC4(CC3)CN(C[C@H]3CC[C@H](n5cc(-n6cc(-c7ccc8cc(C(N)=O)cnn78)nn6)c(C(F)F)n5)CC3)CCO4)c21 (stereo partly shown) [Example 89, 7-(1-(3-(difluoromethyl)-1-((1r,4r)-4-((9-(1-(2,6-dioxopiperidin-3-yl)-3-methyl-2-oxo-2,3-dihydro-1H-benzo[d]imidazol-4-yl)-1-oxa-4,9-diazaspiro[5.5]undecan-4-yl)methyl)cyclohexyl)-1H-pyrazol-4-yl)-1H-1,2,3-triazol-4-yl)pyrrolo[1,2-b]pyridazine-3-carboxamide] | > 80 | 0.5 to 1 | – | –
13 | Cn1c(=O)n(C2CCC(=O)NC2=O)c2cccc(NC(=O)N3CCC4(CCN(C[C@H]5CC[C@H](n6cc(-n7cc(-c8ccc9cc(C(N)=O)cnn89)nn7)c(C(F)F)n6)CC5)C4)CC3)c21 (stereo partly shown) [Example 90, 2-(((1r,4r)-4-(4-(4-(3-carbamoylpyrrolo[1,2-b]pyridazin-7-yl)-1H-1,2,3-triazol-1-yl) -3-(difluoromethyl)-1H-pyrazol-1-yl)cyclohexyl)methyl)-N-(1-(2,6-dioxopiperidin-3-yl)-3-methyl-2-oxo-2,3-dihydro-1H-benzo[d]imidazol-4-yl)-2,8-diazaspiro[4.5]decan-8-carboxamide] | 70 to 80 | > 5 | – | –
14 | Cn1c(=O)n(C2CCC(=O)NC2=O)c2cccc(N3CCC(N4CCN(C[C@H]5CC[C@H](n6cc(-n7cc(-c8ccc9cc(C(N)=O)cnn89)nn7)c(C(F)F)n6)CC5)CC4)CC3)c21 (stereo partly shown) [Example 91, 7-(1-(3-(difluoromethyl)-1-((1r,4r)-4-((4-(1-(1-(2,6-dioxopiperidin-3-yl)-3-methyl-2-oxo-2,3-dihydro-1H-benzo[d]imidazol-4-yl)piperidin-4-yl)piperazin-1-yl)methyl)cyclohexyl)-1H-pyrazol-4-yl)-1H-1,2,3-triazol-4-yl)pyrrolo[1,2-b]pyridazine-3-carboxamide] | > 80 | < 0.5 | – | –
15 | Cn1c(=O)n(C2CCC(=O)NC2=O)c2cccc(N3C4CCC3CN(C[C@H]3CC[C@H](n5cc(-n6cc(-c7ccc8cc(C(N)=O)cnn78)nn6)c(C(F)F)n5)CC3)C4)c21 (stereo partly shown) [Example 92, 7-(1-(3-(difluoromethyl)-1-((1r,4r)-4-(8-(1-(2,6-dioxopiperidin-3-yl)-3-methyl-2-oxo-2,3-dihydro-1H-benzo[d]imidazol-4-yl)-3,8-diazabicyclo[3.2.1]oct-3-yl)methyl)cyclohexyl-1H-pyrazol-4-yl)-1H-1,2,3-triazol-4-yl)pyrrolo[1,2-b]pyridazine-3-carboxamide] | > 80 | 1 to 5 | – | –
16 | NC(=O)c1cnn2c(-c3cn(-c4cn(C5CCN(CCN6CCN(c7ccc8c(c7)C(=O)N(C7CCC(=O)NC7=O)C8=O)CC6)CC5)nc4C(F)F)nn3)ccc2c1 (stereo not shown) [Example 93] | 70 to 80 | 1 to 5 | – | –
17 | NC(=O)c1cnn2c(-c3cn(-c4cn(C5CCN(CC6CCN(c7ccc8c(c7)C(=O)N(C7CCC(=O)NC7=O)C8=O)CC6)CC5)nc4C(F)F)nn3)ccc2c1 (stereo not shown) [Example 94, 7-(1-(3-(difluoromethyl)-1-(1-((1-(2-(2,6-dioxopiperidin-3-yl)-1,3-dioxoisoindolin-5-yl)piperidin-4-yl)methyl)piperidin-4-yl)-1H-pyrazol-4-yl)-1H-1,2,3-triazol-4-yl)pyrrolo[1,2-b]pyridazine-3-carboxamide] | – | – | < 60 | < 0.5
18 | NC(=O)c1cnn2c(-c3cn(-c4cn(C5CCN(CC6CCN(c7ccc(C(=O)NC8CCC(=O)NC8=O)c(F)c7)CC6)CC5)nc4C(F)F)nn3)ccc2c1 (stereo not shown) [Example 95, 7-{1-[3-(difluoromethyl)-1-{1-[(1-{4-[(2,6-dioxopiperidin-3-yl)aminocarbonyl]-3-fluorophenyl}piperidin-4-yl)methyl]piperidin-4-yl}-1H-pyrazol-4-yl]-1H-1,2,3-triazol-4-yl}pyrrolo[1,2-b]pyridazine-3-carboxamide] | – | – | < 60 | > 5
19 | Cn1c(=O)n(C2CCC(=O)NC2=O)c2cccc(N3CCN(C[C@H]4CC[C@H](n5cc(-n6cc(-n7ccc8cc(C(N)=O)cnc87)nn6)c(C(F)F)n5)CC4)CC3)c21 (stereo partly shown) [Example 100, 1-(1-(3-(difluoromethyl)-1-((1r,4r)-4-((4-(1-(2,6-dioxopiperidin-3-yl)-3-methyl-2-oxo-2,3-dihydro-1H-benzo[d]imidazol-4-yl)piperazin-1-yl)methyl)cyclohexyl)-1H-pyrazol-4-yl)-1H-1,2,3-triazol-4-yl)-1H-pyrrolo[2,3-b]pyridine-5-carboxamide] | 60 to 70 | 0.5 to 1 | – | –
20 | Cn1c(=O)n(C2CCC(=O)NC2=O)c2cccc(C3CCN(C[C@H]4CC[C@H](n5cc(-n6cc(-n7ccc8cc(C(N)=O)cnc87)nn6)c(C(F)F)n5)CC4)CC3)c21 (stereo partly shown) [Example 101, 1-(1-(3-(difluoromethyl)-1-((1r,4r)-4-((4-(1-(2,6-dioxopiperidin-3-yl)-3-methyl-2-oxo-2,3-dihydro-1H-benzo[d]imidazol-4-yl)piperidin-1-yl)methyl)cyclohexyl)-1H-pyrazol-4-yl)-1H-1,2,3-triazol-4-yl)-1H-pyrrolo[2,3-b]pyridine-5-carboxamide] | 70 to 80 | < 0.5 | – | –
